In patent US20020052295A1, “Diacyl derivatives of propylene diamine having herbicidal activity” (priority 1999, published 2002):

Columns and labels:
[1] = tested on: ABUTH; test: Pre-emergence herbicidal activity on ABUTH (velvetleaf); format: in vivo, Abutilon theophrasti
Method in brief: (§1)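 Steps: sterilized fertilized topsoil potted; seeds sown, covered; compound (50:50 acetone/water dilution) applied to soil surface; 0.64 cm overhead irrigation; greenhouse 30/21 °C day/night; % inhibition vs untreated scored at ~14 d; GR80 calculated.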

[2] = tested on: SOLNI; test: Pre-emergence herbicidal activity on SOLNI (black nightshade); format: in vivo, Solanum nigrum
Method in brief: as §1

[3] = tested on: AMARE; test: Pre-emergence herbicidal activity on AMARE (redroot pigweed); format: in vivo, Amaranthus retroflexus
Method in brief: as §1

[4] = tested on: DATST; test: Pre-emergence herbicidal activity on DATST (jimsonweed); format: in vivo, Datura stramonium
Method in brief: as §1

[5] = tested on: CHEAL; test: Pre-emergence herbicidal activity on CHEAL (common lambsquarters); format: in vivo, Chenopodium album
Method in brief: as §1

[6] = tested on: CONAR; test: Pre-emergence herbicidal activity on CONAR (field bindweed); format: in vivo, Convolvulus arvensis
Method in brief: as §1

[7] = tested on: POROL; test: Pre-emergence herbicidal activity on POROL (common purslane); format: in vivo, Portulaca oleracea
Method in brief: as §1

[8] = tested on: CIRAR; test: Pre-emergence herbicidal activity on CIRAR (canada thistle, seedling); format: in vivo, Cirsium arvense
Method in brief: as §1

[9] = tested on: ECHCG; test: Pre-emergence herbicidal activity on ECHCG (barnyardgrass); format: in vivo, Echinochloa crus-galli
Method in brief: as §1

[10] = tested on: PANMI; test: Pre-emergence herbicidal activity on PANMI (wild proso millet); format: in vivo, Panicum miliaceum
Method in brief: as §1

[11] = tested on: SORHA; test: Pre-emergence herbicidal activity on SORHA (johnsongrass, seedling); format: in vivo, Sorghum halepense
Method in brief: as §1

[12] = tested on: SETFA; test: Pre-emergence herbicidal activity on SETFA (giant foxtail); format: in vivo, Setaria faberi
Method in brief: as §1

[13] = tested on: PANDI; test: Pre-emergence herbicidal activity on PANDI (fall panicum); format: in vivo, Panicum dichotomiflorum
Method in brief: as §1

[14] = tested on: SORVU; test: Pre-emergence herbicidal activity on SORVU (shattercane); format: in vivo, Sorghum vulgare
Method in brief: as §1

[15] = tested on: BRAPP; test: Pre-emergence herbicidal activity on BRAPP (broadleaf signalgrass); format: in vivo, Brachiaria platyphylla
Method in brief: as §1

[16] = tested on: DIGSA; test: Pre-emergence herbicidal activity on DIGSA (large crabgrass); format: in vivo, Digitaria sanguinalis
Method in brief: as §1

[17] = tested on: ABUTH; test: Post-emergence herbicidal activity on ABUTH (velvetleaf); format: in vivo, Abutilon theophrasti; settings: post-emergence spray; lowest tested rate with 80% or greater inhibition; about 14 days after treatment
Method in brief: (§2)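 Seeds are sown in topsoil, covered with topsoil/Rediearth, and subirrigated until plants reach treatment stage (typically 9 to 14 days). Plants are then sprayed with compound in 50:50 acetone and water at 3,100 l/ha. Inhibition is rated against untreated plants at about 14 days.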

[18] = tested on: SOLNI; test: Post-emergence herbicidal activity on SOLNI (black nightshade); format: in vivo, Solanum nigrum; settings: post-emergence spray; lowest tested rate with 80% or greater inhibition; about 14 days after treatment
Method in brief: as §2

[19] = tested on: AMARE; test: Post-emergence herbicidal activity on AMARE (redroot pigweed); format: in vivo, Amaranthus retroflexus; settings: post-emergence spray; lowest tested rate with 80% or greater inhibition; about 14 days after treatment
Method in brief: as §2

[20] = tested on: DATST; test: Post-emergence herbicidal activity on DATST (jimsonweed); format: in vivo, Datura stramonium; settings: post-emergence spray; lowest tested rate with 80% or greater inhibition; about 14 days after treatment
Method in brief: as §2

[21] = tested on: CHEAL; test: Post-emergence herbicidal activity on CHEAL (common lambsquarters); format: in vivo, Chenopodium album; settings: post-emergence spray; lowest tested rate with 80% or greater inhibition; about 14 days after treatment
Method in brief: as §2

[22] = tested on: CONAR; test: Post-emergence herbicidal activity on CONAR (field bindweed); format: in vivo, Convolvulus arvensis; settings: post-emergence spray; lowest tested rate with 80% or greater inhibition; about 14 days after treatment
Method in brief: as §2

[23] = tested on: POROL; test: Post-emergence herbicidal activity on POROL (common purslane; table head prints PORAL); format: in vivo, Portulaca oleracea; settings: post-emergence spray; lowest tested rate with 80% or greater inhibition; about 14 days after treatment
Method in brief: as §2

[24] = tested on: ECHCG; test: Post-emergence herbicidal activity on ECHCG (barnyardgrass); format: in vivo, Echinochloa crus-galli; settings: post-emergence spray; lowest tested rate with 80% or greater inhibition; about 14 days after treatment
Method in brief: as §2

[25] = tested on: PANMI; test: Post-emergence herbicidal activity on PANMI (wild proso millet); format: in vivo, Panicum miliaceum; settings: post-emergence spray; lowest tested rate with 80% or greater inhibition; about 14 days after treatment
[26] = tested on: SORHA; test: Post-emergence herbicidal activity on SORHA (johnsongrass, seedling); format: in vivo, Sorghum halepense; settings: post-emergence spray; lowest tested rate with 80% or greater inhibition; about 14 days after treatment
Method in brief: as §2

[27] = tested on: SETFA; test: Post-emergence herbicidal activity on SETFA (giant foxtail); format: in vivo, Setaria faberi; settings: post-emergence spray; lowest tested rate with 80% or greater inhibition; about 14 days after treatment
Method in brief: as §2

[28] = tested on: PANDI; test: Post-emergence herbicidal activity on PANDI (fall panicum); format: in vivo, Panicum dichotomiflorum; settings: post-emergence spray; lowest tested rate with 80% or greater inhibition; about 14 days after treatment
Method in brief: as §2

[29] = tested on: SORVU; test: Post-emergence herbicidal activity on SORVU (shattercane); format: in vivo, Sorghum vulgare; settings: post-emergence spray; lowest tested rate with 80% or greater inhibition; about 14 days after treatment
Method in brief: as §2

[30] = tested on: BRAPP; test: Post-emergence herbicidal activity on BRAPP (broadleaf signalgrass); format: in vivo, Brachiaria platyphylla; settings: post-emergence spray; lowest tested rate with 80% or greater inhibition; about 14 days after treatment
Method in brief: as §2

[31] = tested on: DIGSA; test: Post-emergence herbicidal activity on DIGSA (large crabgrass); format: in vivo, Digitaria sanguinalis; settings: post-emergence spray; lowest tested rate with 80% or greater inhibition; about 14 days after treatment
[32] = tested on: dicotyledonous species; test: Pre-emergence test (later test), average GR80 on dicotyledonous species; format: in vivo; settings: average over dicotyledonous species
Description: (§3) All such uses, and the biological activity enabling such uses, are embraced by the term “herbicidal” herein. Tables 15 and 16 summarize results of tests conducted as described below to determine the pre-emergence herbicidal activity, in the form of a GR80 value, of illustrative compounds of this invention. […] Where herbicidal activity was evident but 80% inhibition was not achieved at the highest rate tested (typically 1000 g/ha), an asterisk (*) is shown in the following tables. Herbicidal activity evident in the form of symptoms of phytotoxicity, in the absence of at least 80% inhibition at any rate, is indicated in the tables by “phyto”. A blank cell in the following tables indicates no herbicidal or phytotoxic response at any rate tested.
(§4) The pre-emergence tests were conducted by the following procedure. Topsoil was sieved to pass through a 1.27 cm screen. Fertilizer was added to the topsoil and the mixture was then sterilized by heating. The topsoil mixture was placed in a pot and compacted to a depth of 1.0 to 1.25 cm from the top of the pot. Seeds of each of several monocotyledonous and dicotyledonous annual plant species were placed on top of the soil. […]
(§5) Approximately 14 days after planting and treating, the plants were observed and herbicidal efficacy recorded as percent inhibition by comparison with untreated plants. […]

[33] = tested on: monocotyledonous species; test: Pre-emergence test (later test), GR80 on monocotyledonous species; format: in vivo; settings: average over monocotyledonous species
Description: as §3, §4, §5

[34] = lowest tested rate giving 80% or greater inhibition, approx. 14 days after planting and treating, greenhouse
[35] = racemic mixture vs enantiomers test, rates tested 1000, 650, 300, 200, 100, 65, 30 and 10 g/ha, lowest rate with 80% or greater inhibition

## CC(CNC(=O)c1cccc(C(F)(F)F)c1)NC(=O)c1cccc(C(F)(F)F)c1 (stereo not shown) [Example 5, N,N′-(1,2-propanediylbis)-3-(trifluoromethyl)benzamide]
[1]; [34]
  Pre-emergence activity (GR80) on ABUTH: 1000 g/ha
[1]; [35]
  Pre-emergence activity (GR80) ABUTH: * (Where herbicidal activity was evident but 80% inhibition was not achieved at the highest rate tested (typically 1000 g/ha), an asterisk (*) is shown)
[2]; [34]
  Pre-emergence activity (GR80) on SOLNI: 750 g/ha
[2]; [35]
  Pre-emergence activity (GR80) SOLNI: 300 g/ha
[3]; [34]
  Pre-emergence activity (GR80) on AMARE: 125 g/ha
[3]; [35]
  Pre-emergence activity (GR80) AMARE: 65 g/ha
[4]; [34]
  Pre-emergence activity (GR80) on DATST: 500 g/ha
[4]; [35]
  Pre-emergence activity (GR80) DATST: 1000 g/ha
[5]; [34]
  Pre-emergence activity (GR80) on CHEAL: 250 g/ha
[5]; [35]
  Pre-emergence activity (GR80) CHEAL: 100 g/ha
[6]; [34]
  Pre-emergence activity (GR80) on CONAR: phyto
[6]; [35]
  Pre-emergence activity (GR80) CONAR: phyto
[7]; [34]
  Pre-emergence activity (GR80) on PORAL: 250 g/ha
[7]; [35]
  Pre-emergence activity (GR80) PORAL: 650 g/ha
[8]; [34]
  Pre-emergence activity (GR80) on CIRAR: 250 g/ha
[8]; [35]
  Pre-emergence activity (GR80) CIRAR: * (Where herbicidal activity was evident but 80% inhibition was not achieved at the highest rate tested (typically 1000 g/ha), an asterisk (*) is shown)
[9]; [34]
  Pre-emergence activity (GR80) on ECHCG: phyto
[9]; [35]
  Pre-emergence activity (GR80) ECHCG: phyto
[10]; [34]
  Pre-emergence activity (GR80) on PANMI: phyto
[10]; [35]
  Pre-emergence activity (GR80) PANMI: 650 g/ha
[11]; [34]
  Pre-emergence activity (GR80) on SORHA: phyto
[11]; [35]
  Pre-emergence activity (GR80) SORHA: phyto
[12]; [34]
  Pre-emergence activity (GR80) on SETFA: * (Where herbicidal activity was evident but 80% inhibition was not achieved at the highest rate tested (typically 1000 g/ha), an asterisk (*) is shown)
[12]; [35]
  Pre-emergence activity (GR80) SETFA: phyto
[13]; [34]
  Pre-emergence activity (GR80) on PANDI: 500 g/ha
[13]; [35]
  Pre-emergence activity (GR80) PANDI: 650 g/ha
[14]; [34]
  Pre-emergence activity (GR80) on SORVU: phyto
[14]; [35]
  Pre-emergence activity (GR80) SORVU: phyto
[15]; [34]
  Pre-emergence activity (GR80) on BRAPP: * (Where herbicidal activity was evident but 80% inhibition was not achieved at the highest rate tested (typically 1000 g/ha), an asterisk (*) is shown)
[15]; [35]
  Pre-emergence activity (GR80) BRAPP: phyto
[16]; [34]
  Pre-emergence activity (GR80) on DIGSA: 250 g/ha
[16]; [35]
  Pre-emergence activity (GR80) DIGSA: 200 g/ha
[17]
  Post-emergence activity (GR80) ABUTH: 1000 g/ha
[18]
  Post-emergence activity (GR80) SOLNI: 1000 g/ha
[19]
  Post-emergence activity (GR80) AMARE: 250 g/ha
[20]
  Post-emergence activity (GR80) DATST: 125 g/ha
[21]
  Post-emergence activity (GR80) CHEAL: 500 g/ha
[22]
  Post-emergence activity (GR80) CONAR: 750 g/ha
[23]
  Post-emergence activity (GR80) PORAL: 750 g/ha
[24]
  Post-emergence activity (GR80) ECHCG: [empty]
[25]
  Post-emergence activity (GR80) PANMI: [empty]
[26]
  Post-emergence activity (GR80) SORHA: [empty]
[27]
  Post-emergence activity (GR80) SETFA: [empty]
[28]
  Post-emergence activity (GR80) PANDI: [empty]
[29]
  Post-emergence activity (GR80) SORVU: [empty]
[30]
  Post-emergence activity (GR80) BRAPP: [empty]
[31]
  Post-emergence activity (GR80) DIGSA: [empty]
[32]
  average pre-emergence GR80 on dicotyledonous species: 535 g/ha
[33]
  pre-emergence GR80 on monocotyledonous species: 1041 g/ha
